Broadly, the Kd is the free concentration of one partner at which half of the binding sites on the other are occupied at equilibrium, for simple one-to-one binding. Broadly, the IC50 is the concentration needed to halve the response being measured. A lower IC50 goes with inhibition by little substance.

One assay deals with T1, WT EfaUPPS (Enterococcus faecalis, UniProt Q831K9).
T1 construct: His tag; made in house; host or cells: E. coli BL21(DE3)
Nature of the assay: Microscale thermophoresis binding assay, wild-type EfaUPPS. Here is the method:
(§1) To characterize the binding affinity between EfaUPPS and GA or NGA, the MST binding assay was performed as previously described ([Lin et al., 2020]). In brief, His-tagged EfaUPPS and site-directed mutated EfaUPPS were labeled with the NT- 647-NHS dye using the Monolith NTTM Protein Labeling Kit RED-NHS (NanoTemper Technologies). Two-fold serially diluted GA or NGA was mixed with 10 nM of labeled EfaUPPS or its derivatives in 10 μl of binding buffer (137 mM NaCl, 2.7 mM KCl, 10 mM Na2HPO4, 1.8 mM KH2PO4, and 0.05% Tween-20, pH 7.8), incubated for 15 min, at room temperature. And then, loaded the mixtures into NT.115 premium coated capillaries (NanoTemper Technologies). MST trace signals were collected from the IR laser on to off for about 20 s, under the 5% LED power and high MST power mode. The change of molecular thermophoresis was monitored by standardized fluorescence value Fnorm, and the binding curve was plotted according to the values of Fnorm. The formed complex affinity was analyzed by MO Affinity Analysis software version 2.3. Apparent dissociation constants (Kd) were calculated using nonlinear fitting assuming one specific binding site with the GraphPad Prism 7 software with the following formula: Y = B^∗Max X/KD + X.
(§2) (^∗ where BMax is the maximum theoretical specific binding; here BMax = 1).
(In general: In MST a laser heats a spot of the sample, and binding alters the fluorescence response.)

A further assay has as its target T2, EfaUPPS (L146A) (Enterococcus faecalis, UniProt Q831K9, L152A).
T2 construct: His tag; made in house; host or cells: E. coli BL21(DE3)
Kind of assay: UPPS inhibition assay, EfaUPPS L146A mutant. Format: biochemical. Particulars: for effect of mutation on inhibitory effect of compound on EfaUPPS enzyme activity: L146A mutant compared with wild-type; for IC50 fold higher than that of the wild-type: L146A mutant vs wild-type (~3 μM). Here is the method: (§3) The EfaUPPS site-directed mutagenesis was generated using QuikChange site-directed mutagenesis kit (Agilent) according to the manufacturer’s instructions. The purification of site-directed mutation was using a similar strategy as described above.
(§4) The UPPS inhibition assay was carried out by measuring the fluorescence of the reaction mixture in a black 96-well microtiter plate (Corning, United States). […] After the indicated incubation period, the reaction was terminated by the addition of 10 μl of 0.5 M EDTA solution. Transferred 50 μl of the reaction mixture into a new 96-well microtiter plate, and quenched with an equal volume of Master Reaction Mix (Pyrophosphate Assay Kit, Sigma-Aldrich, USA) for 30 min. The UPPS inhibitory activity was performed by calculating the fluorescence percentage through determining the fluorescence absorbance of reaction mixture at 316 and 456 nm. Data of UPPS inhibitory activities were plotted versus compound concentrations on a semi-log scale using GraphPad Prism7. All the results were the means of at least three biological replicates.

The next assay deals with T3, EfaUPPS (L91A) (Enterococcus faecalis, UniProt Q831K9, L97A).
T3 construct: His tag; made in house; host or cells: E. coli BL21(DE3)
T3 sequence (Q831K9 whole entry L97A): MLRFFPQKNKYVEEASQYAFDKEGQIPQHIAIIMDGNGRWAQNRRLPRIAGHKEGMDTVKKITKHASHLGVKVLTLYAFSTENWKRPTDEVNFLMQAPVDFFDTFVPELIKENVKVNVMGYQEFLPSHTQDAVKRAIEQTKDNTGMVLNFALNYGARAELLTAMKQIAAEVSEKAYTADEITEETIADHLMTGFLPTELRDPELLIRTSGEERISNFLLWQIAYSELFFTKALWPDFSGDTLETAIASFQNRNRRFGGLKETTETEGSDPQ
Nature of the assay: UPPS inhibition assay, EfaUPPS L91A mutant. The conditions noted are these: for effect of mutation on inhibitory effect of compound on EfaUPPS enzyme activity: L91A mutant compared with wild-type; for IC50 fold higher than that of the wild-type: L91A mutant vs wild-type (~3 μM). Format: biochemical. Here is the method:
as §3, §4

Assay [1] concerns the target T4, EfaUPPS (K47A) (Enterococcus faecalis, UniProt Q831K9, K53A).
T4 construct: His tag; made in house; host or cells: E. coli BL21(DE3)
Nature of the assay: Microscale thermophoresis binding assay, EfaUPPS K47A. Here is the method:
as §1, §2

Another assay relates to MRSA. Nature of the assay: MIC, microtiter broth dilution. The conditions noted are these: Staphylococcus aureus, MRSA, 18 h. The assay is classed as cell-based, Staphylococcus aureus. How it is done:
(§5) Antibacterial activities were performed by examining the minimal inhibitory concentrations (MICs), which was determined by a microtiter broth dilution method as previously described ([Cotsonas King and Wu, 2009]), with minor modifications. Briefly, 96-well plates (Corning) were inoculated with 100 μl of LB broth per well containing 7 × 10^5 CFU/mL bacteria, followed by adding 100 μl of LB broth containing two-fold serial dilutions of the test compounds. […] After 18 h of incubation, the MIC was determined to be the lowest concentration without visible bacterial growth. The results were the averages of at least three biological replicates.
In general terms: In broth dilution the organism is exposed to a series of concentrations in liquid medium.

The test system of assay [2] is clinical strains of S. aureus, E. faecalis, L. monocytogenes. Nature of the assay: MIC against clinical isolates. The assay is classed as cell-based. The conditions noted are these: 10 more clinical strains of each species. An excerpt:
Enterococcus faecalis ATCC29212 and Staphylococcus aureus ATCC29213 were purchased from the […]. Methicillin-resistant Staphylococcus aureus (MRSA), Listeria monocytogenes ATCC19117, Escherichia coli ATCC25922, Escherichia coli BAS849, DH5α and BL21 were from Lin lab storage. The clinical strains used in this study were isolated and identified from Affiliated Hospital of Nanjing University of Chinese Medicine and Nanjing Drum Tower Hospital, China. All the bacteria strains were routinely cultured in Luria-Bertani (LB) broth media (1% tryptone, 0.5% yeast extract, and 1% NaCl) at 37°C, except as noted.
Antibacterial activities were performed by examining the minimal inhibitory concentrations (MICs), which was determined by a microtiter broth dilution method as previously described ([Cotsonas King and Wu, 2009]), with minor modifications. Briefly, 96-well plates (Corning) were inoculated with 100 μl of LB broth per well containing 7 × 10^5 CFU/mL bacteria, followed by adding 100 μl of LB broth containing two-fold serial dilutions of the test compounds. Tetracycline (Tet) and ampicillin (Amp) and viridicatumtoxins were used as the positive controls. After 18 h of incubation, the MIC was determined to be the lowest concentration without visible bacterial growth. The results were the averages of at least three biological replicates.

The test system of assay [3] is Escherichia coli BL21 (DE3). Kind of assay: microbe, parasite or virus in culture. Format: cell-based. The conditions noted are these: Escherichia coli, 18 h. How it is done:
as §5

The next assay relates to Escherichia coli DH5α. Nature of the assay: microbe, parasite or virus in culture. Format: cell-based. Particulars: Escherichia coli, 18 h. Here is the method:
as §5

The next assay relates to Escherichia coli BAS 849. Nature of the assay: microbe, parasite or virus in culture. Format: cell-based. Particulars: Escherichia coli. How it is done:
as §5

The target in another assay is T5, EfaUPPS (Enterococcus faecalis, UniProt Q831K9).
T5 construct: His tag; made in house; host or cells: E. coli BL21(DE3)
T5 sequence (Q831K9 whole entry): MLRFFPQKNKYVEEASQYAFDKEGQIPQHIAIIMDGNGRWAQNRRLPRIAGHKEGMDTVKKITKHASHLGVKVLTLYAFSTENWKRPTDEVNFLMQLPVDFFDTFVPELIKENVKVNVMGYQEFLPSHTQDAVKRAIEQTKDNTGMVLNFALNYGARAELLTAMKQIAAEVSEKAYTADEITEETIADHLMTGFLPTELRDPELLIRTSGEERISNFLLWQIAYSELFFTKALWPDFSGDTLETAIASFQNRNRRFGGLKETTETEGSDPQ
Kind of assay: Compound/substrate-UPPS binding competition experiment. Format: biochemical. The conditions noted are these: 0-20 μM FPP, 1/2/5 μM compound. Here is the method: The compound/substrate-UPPS binding competition experiment was performed as the above descriptions. The difference is that the reaction buffer containing 35 μM IPP, different concentrations of FPP ranged from 0–20 μM, and in the presence of 0/1/2/5 μM GA/NGA, respectively. Data were plotted with competitive inhibition model using GraphPad Prism7.

Assay [4] concerns the target T4, EfaUPPS (K47A). Nature of the assay: UPPS inhibition assay, EfaUPPS K47A mutant. The assay is classed as biochemical. Particulars: K47A mutant compared with wild-type. Here is the method: as §3, §4

Structures are written as SMILES. Values after ≈ are worked out from the molar mass of the structure shown. Read-outs that look alike come from different tables or passages of the source.

T2 sequence (Q831K9 whole entry L152A): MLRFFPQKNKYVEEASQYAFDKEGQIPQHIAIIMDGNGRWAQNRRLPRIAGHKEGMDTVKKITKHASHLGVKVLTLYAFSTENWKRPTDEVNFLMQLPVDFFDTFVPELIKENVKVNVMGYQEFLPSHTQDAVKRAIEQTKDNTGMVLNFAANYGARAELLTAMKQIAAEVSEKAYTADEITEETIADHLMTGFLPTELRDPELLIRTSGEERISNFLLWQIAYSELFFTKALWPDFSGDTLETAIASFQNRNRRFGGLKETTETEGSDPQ
T4 sequence (Q831K9 whole entry K53A): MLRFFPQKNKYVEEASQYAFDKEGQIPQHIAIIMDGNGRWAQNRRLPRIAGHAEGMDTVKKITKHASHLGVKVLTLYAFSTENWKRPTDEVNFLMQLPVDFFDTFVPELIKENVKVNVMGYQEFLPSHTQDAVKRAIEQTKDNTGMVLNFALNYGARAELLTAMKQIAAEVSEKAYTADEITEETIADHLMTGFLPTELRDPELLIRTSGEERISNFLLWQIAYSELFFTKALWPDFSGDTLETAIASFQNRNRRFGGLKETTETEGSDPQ
T1 sequence (Q831K9 whole entry): as the sequence (Q831K9 whole entry) above

Regarding `CC(C)=CCC[C@]1(C)C=Cc2c(O)c3c(c(CC=C(C)C)c2O1)O[C@]12C(=C[C@@H]4C[C@H]1C(C)(C)O[C@@]2(C/C=C(/C)C(=O)O)C4=O)C3=O` [GA, gambogic acid], the Kd on WT EfaUPPS (MST, WT EfaUPPS, read-out: Kd) was 29 ± 8.03 µM; on EfaUPPS (K47A) [1], 4.61 ± 2.62 µM. Also, the IC50 against EfaUPPS (L146A) and at EfaUPPS (L91A) was about 30 µM in each case. The results for the “effect of mutation on inhibitory effect of compound on EfaUPPS enzyme activity” value on EfaUPPS (L146A), on EfaUPPS (L91A) and on EfaUPPS (K47A) [4] were “significantly decreased”, “significantly decreased” and “no obvious difference”, respectively. For the same compound, the “IC50 fold higher than that of the wild-type” value on EfaUPPS (L146A) and against EfaUPPS (L91A) was “about 10 fold” in each case. Also, the “Kd fold lower than that of the wild-type” value at EfaUPPS (K47A) [1] (K47A vs wild-type) is recorded as “about 6 fold”. The MIC in the assay on MRSA (LB broth, read-out: MIC) was 4 µg/mL (≈ 6.36 µM); in [3] (LB broth, read-out: MIC) it was over 64 µg/mL; with Escherichia coli DH5α (LB broth, read-out: MIC), over 64 µg/mL; in the assay on Escherichia coli BAS 849 (BAS849, LB broth, 18 h, strain with deficient outer-membrane structure, read-out: MIC) it was 8 µg/mL (≈ 12.7 µM). For the same compound, the “growth inhibitory activity (MICs) against clinical strains” value in assay [2] is reported as “high potency in growth inhibitory activity”. For the same compound, the “competition with FPP for binding to EfaUPPS” value on EfaUPPS was “compete with FPP”. On EfaUPPS (K47A) [4], the “IC50 values of K47A mutant (in words)” value is given as “increased”.
On to `CC(C)=CCC[C@]1(C)CC(O)c2c(O)c3c(c(CC=C(C)C)c2O1)O[C@]12C(=C[C@@H]4C[C@H]1C(C)(C)O[C@@]2(C/C=C(/C)C(=O)O)C4=O)C3=O` (stereo partly shown) [NGA, neogambogic acid], for which the equilibrium dissociation constant (Kd) amounted to 5.61 ± 2.16 µM at WT EfaUPPS and 65.9 ± 25.8 µM on EfaUPPS (K47A) [1]. The “Kd fold lower than that for GA” value at WT EfaUPPS (WT EfaUPPS, NGA vs GA) is reported as “about 5 fold”. Besides, the concentration for half-maximal inhibition (IC50) at EfaUPPS (L146A) and on EfaUPPS (L91A) was about 30 µM in each case. Besides, the “effect of mutation on inhibitory effect of compound on EfaUPPS enzyme activity” value at EfaUPPS (L146A), on EfaUPPS (L91A) and at EfaUPPS (K47A) [4] was “significantly reduced” each time. Also, the “IC50 fold higher than that of the wild-type” value against EfaUPPS (L146A) and against EfaUPPS (L91A) was “about 10 fold” each time. Further, on EfaUPPS (K47A) [1] (K47A vs wild-type), the “Kd fold higher than that of the wild-type” value is “about 10 fold”. In addition, the MIC in the assay with MRSA was 4 µg/mL (≈ 6.18 µM); in assay [3], over 64 µg/mL; in the assay on Escherichia coli DH5α it was over 64 µg/mL; against Escherichia coli BAS 849 (BAS849, 18 h), 8 µg/mL (≈ 12.4 µM). In addition, in assay [2], the “growth inhibitory activity (MICs) against clinical strains” value is “high potency in growth inhibitory activity”. Besides, the “competition with FPP for binding to EfaUPPS” value at EfaUPPS is given as “compete with FPP”.
